According to patent US9440964B2, “Pesticidal compositions and processes related thereto” (Dow AgroSciences LLC, priority 2011, dated 2016):

Experiments:
Format in all cases: in vivo
[1] = tested on: Yellow Fever Mosquito YFM (Aedes aegypti); assay: Bioassay on Yellow Fever Mosquito (YFM) larvae, 96-well plate; conditions: mortality of about 1 day-old larvae, scored after 3 days
Protocol: Certain molecules disclosed in this document were tested against YFM using procedures described in the following paragraph. In the reporting of the results, the “YFM Rating Table” was used (See Table Section).
Master plates containing 400 μg of a molecule dissolved in 100 μL of dimethyl sulfoxide (DMSO) (equivalent to a 4000 ppm solution) are used. A master plate of assembled molecules contains 15 μL per well. To this plate, 135 μL of a 90:10 water:acetone mixture is added to each well. A robot (Biomek® NXP Laboratory Automation Workstation) is programmed to dispense 15 μL aspirations from the master plate into an empty 96-well shallow plate (“daughter” plate). There are 6 reps (“daughter” plates) created per master. The created daughter plates are then immediately infested with YFM larvae.
The day before plates are to be treated, mosquito eggs are placed in Millipore water containing liver powder to begin hatching (4 g. into 400 ml). After the daughter plates are created using the robot, they are infested with 220 μL of the liver powder/larval mosquito mixture (about 1 day-old larvae). After plates are infested with mosquito larvae, a non-evaporative lid is used to cover the plate to reduce drying. Plates are held at room temperature for 3 days prior to grading. After 3 days, each well is observed and scored based on mortality.
The results are indicated in the table entitled “Table ABC: Biological Results” (See Table Section).

CEW (Helicoverpa zea) = assay: Bioassay on Corn Earworm (CEW), 128-well diet tray; conditions: Helicoverpa zea, 168 h, percent mortality, second instar larvae, five to seven days; for pest or weed control at 50 µg/cm2: 50 μg/cm^2 on diet, read-out: Rating CEW; for pest or weed control at 0.5 µg/cm2: 0.5 μg/cm^2 on diet, read-out: Rating CEW (*Tested at 0.5 μg/cm^2)
Protocol: (§1) Certain molecules disclosed in this document were tested against BAW and CEW using procedures described in the following examples. In the reporting of the results, the “BAW & CEW Rating Table” was used (See Table Section).
Bioassays on CEW (Helicoverpa zea)
(§2) Trays were covered with a clear self-adhesive cover and held at 25° C., 14:10 light-dark for five to seven days. Percent mortality was recorded for the larvae in each well; activity in the eight wells was then averaged. The results are indicated in the table entitled “Table ABC: Biological Results” (See Table Section).

BAW (Spodoptera exigua) = assay: Bioassay on Beet Armyworm (BAW), 128-well diet tray; conditions: Spodoptera exigua, 168 h; percent mortality, second instar larvae, 50 μg/cm^2 on diet, five to seven days; read-out: Rating BAW
Protocol: as §1
Bioassays on BAW (Spodoptera exigua)
as §2

Structure (SMILES)	Rating YFM [1]	pest or weed control at 50 µg/cm2 (CEW (Helicoverpa zea)) [%]	pest or weed control at 50 µg/cm2 (BAW (Spodoptera exigua)) [%]	pest or weed control at 0.5 µg/cm2 (CEW (Helicoverpa zea)) [%]
Cc1cccc(C)c1N/C(=N/C(=O)Nc1ccc(-c2ncn(-c3ccc(C(F)(F)F)cc3)n2)cc1)SCOC(=O)C(C)C [Molecule A3, (E)-(N′-(2,6-Dimethylphenyl)-N-(4-(1-(4-(trifluoromethyl)phenyl)-1H-1,2,4-triazol-3-yl)phenylcarbamoyl)carbamimidoylthio) methyl isobutyrate]	A (80-100)	50 to 100	50 to 100	–
CCC(C)c1ccccc1N1C(=O)CS/C1=N\C(=O)Nc1ccc(-c2ncn(-c3ccc(OC(F)(F)F)cc3)n2)cc1 (stereo not shown) [Molecule A18, (Z)-1-(3-(2-(sec-butyl)phenyl)-4-oxothiazolidin-2-ylidene)-3-(4-(1-(4-(trifluoromethoxy)phenyl)-1H-1,2,4-triazol-3-yl)phenyl)urea]	A (80-100)	50 to 100	50 to 100	–
COc1ccc(N/C(O)=C/C(=O)Nc2ccc(-c3ncn(-c4ccc(OC(F)(F)F)cc4)n3)cc2)c(C(C)C)c1 [Molecule A34, (Z)-3-hydroxy-3-(2-isopropyl-4-methoxyphenylamino)-N-(4-(1-(4-(trifluoromethoxy)phenyl)-1H-1,2,4-triazol-3-yl)phenyl)acrylamide]	A (80-100)	50 to 100	50 to 100	–
CCc1ccccc1N1C(=O)CS/C1=N\C(=O)Nc1ccc(-c2ncn(-c3ccc(OC(F)(F)F)cc3)n2)cc1 [Molecule A35]	A (80-100)	50 to 100	50 to 100	–
COc1ccc(N/C(=N\C(=O)Nc2ccc(-c3ncn(-c4ccc(OC(F)(F)F)cc4)n3)cc2)SCOC(=O)C(C)C)cc1 [Molecule A62]	A (80-100)	50 to 100	50 to 100	–
Cc1ccccc1N1C(=O)CS/C1=N\C(=O)Nc1ccc(-c2ncn(-c3ccc(OC(F)(F)F)cc3)n2)cc1 [Molecule A65]	A (80-100)	–	50 to 100	50 to 100
CCCc1ccccc1N1C(=O)CS/C1=N\C(=O)Nc1ccc(-c2ncn(-c3ccc(OC(F)(F)F)cc3)n2)cc1 [Molecule A69]	A (80-100)	–	50 to 100	50 to 100
Cc1ccc(N2C(=O)CS/C2=N\C(=O)Nc2ccc(-c3ncn(-c4ccc(OC(F)(F)F)cc4)n3)cc2)c(Cl)c1 [Molecule A77]	B (More than 0-Less than 80)	–	50 to 100	50 to 100
Cc1ccccc1N/C(S)=N/C(=O)Nc1ccc(-c2ncn(-c3ccc(OC(F)(F)F)cc3)n2)cc1 [Molecule A80]	B (More than 0-Less than 80)	50 to 100	50 to 100	–
CC(C)c1cccc(Cl)c1N1C(=O)CS/C1=N\C(=O)Nc1ccc(-c2ncn(-c3ccc(OC(F)(F)F)cc3)n2)cc1 [Molecule A85]	A (80-100)	–	50 to 100	50 to 100
CCc1cccc(C)c1N/C(S)=N/C(=O)Nc1ccc(-c2ncn(-c3ccc(OC(F)(F)F)cc3)n2)cc1 [Molecule A97]	–	–	50 to 100	50 to 100
COc1ccc(N/C(S)=N/C(=O)Nc2ccc(-c3ncn(-c4ccc(OC(F)(F)F)cc4)n3)cc2)c(C)c1 [Molecule A98]	–	–	50 to 100	50 to 100
Cc1cc(C)cc(N/C(S)=N/C(=O)Nc2ccc(-c3ncn(-c4ccc(OC(F)(F)F)cc4)n3)cc2)c1 [Molecule A100]	–	–	50 to 100	50 to 100
O=C(/N=C(\S)Nc1ccccc1Cc1ccccc1)Nc1ccc(-c2ncn(-c3ccc(OC(F)(F)F)cc3)n2)cc1 [Molecule A101]	–	–	50 to 100	50 to 100
CCc1cccc(C)c1N1C(=O)CS/C1=N\C(=O)Nc1ccc(-c2ncn(-c3ccc(OC(F)(F)F)cc3)n2)cc1 [Molecule A103]	–	–	50 to 100	50 to 100
O=C(/N=C1\SCC(=O)N1c1ccccc1Cc1ccccc1)Nc1ccc(-c2ncn(-c3ccc(OC(F)(F)F)cc3)n2)cc1 [Molecule A105]	–	–	50 to 100	50 to 100
Cc1cccc(N/C(S)=N/C(=O)Nc2ccc(-c3ncn(-c4ccc(OC(F)(F)F)cc4)n3)cc2)c1C(C)C [Molecule A106]	–	–	50 to 100	50 to 100
CC(C)c1c(F)cccc1N/C(S)=N/C(=O)Nc1ccc(-c2ncn(-c3ccc(OC(F)(F)F)cc3)n2)cc1 [Molecule A107]	–	–	50 to 100	50 to 100
Cc1cccc(N2C(=O)CS/C2=N\C(=O)Nc2ccc(-c3ncn(-c4ccc(OC(F)(F)F)cc4)n3)cc2)c1C(C)C [Molecule A108]	–	–	50 to 100	50 to 100
CC(C)c1c(F)cccc1N1C(=O)CS/C1=N\C(=O)Nc1ccc(-c2ncn(-c3ccc(OC(F)(F)F)cc3)n2)cc1 [Molecule A109]	–	–	50 to 100	50 to 100
COc1ccc(N2C(=O)CS/C2=N\C(=O)Nc2ccc(-c3ncn(-c4ccc(OC(F)(F)F)cc4)n3)cc2)c(C)c1 [Molecule A110]	A (80-100)	–	50 to 100	50 to 100
COc1ccc(Cl)cc1N1C(=O)CS/C1=N\C(=O)Nc1ccc(-c2ncn(-c3ccc(OC(F)(F)F)cc3)n2)cc1 [Molecule A111]	–	–	50 to 100	50 to 100
CC(C)c1ccccc1N/C(S)=N/C(=O)Nc1ccc(-c2ccn(-c3ccc(OC(F)(F)F)cc3)n2)cc1 [Molecule A114, N-[[(2-isopropyllphenyl)amino]thioxomethyl]-N′-((4-(1-(4-(trifluoromethoxy)phenyl)-1H-pyrazol-3-yl)phenyl))urea]	–	–	50 to 100	50 to 100
CC(C)c1ccccc1N1C(=O)CS/C1=N\C(=O)Nc1ccc(-c2ncn(-c3ccc(OC(F)(F)C(F)(F)F)cc3)n2)cc1 [Molecule A115]	–	–	50 to 100	50 to 100
CC(C)c1cc(F)ccc1N/C(S)=N/C(=O)Nc1ccc(-c2ncn(-c3ccc(OC(F)(F)F)cc3)n2)cc1 [Molecule A116]	–	–	50 to 100	50 to 100
CC(C)c1cc(F)ccc1N1C(=O)CS/C1=N\C(=O)Nc1ccc(-c2ncn(-c3ccc(OC(F)(F)F)cc3)n2)cc1 [Molecule A117]	–	–	50 to 100	50 to 100
CC(C)n1nccc1N/C(S)=N/C(=O)Nc1ccc(-c2ncn(-c3ccc(OC(F)(F)F)cc3)n2)cc1 [Molecule A119]	–	–	50 to 100	0 to 50
CC(C)n1nccc1N1C(=O)CS/C1=N\C(=O)Nc1ccc(-c2ncn(-c3ccc(OC(F)(F)F)cc3)n2)cc1 [Molecule A121]	–	–	50 to 100	50 to 100
Cc1cc(-c2ncn(-c3ccc(OC(F)(F)F)cc3)n2)ccc1NC(=O)/N=C(\S)Nc1ccccc1C(C)C [Molecule A122, N-[[(2-isopropyllphenyl)amino]thioxomethyl]-N′-(2-methyl(4-(1-(4-(trifluoromethoxy)phenyl)-1H-1,2,4-triazol-3-yl)phenyl))urea]	A (80-100)	–	50 to 100	50 to 100
Cc1cc(-c2ncn(-c3ccc(OC(F)(F)F)cc3)n2)ccc1NC(=O)/N=C1\SCC(=O)N1c1ccccc1C(C)C [Molecule A123, (Z)-1-(3-(2-isopropylphenyl)-4-oxothiazolidin-2-ylidene)-3-(2-methyl-4-(1-(4-(trifluoromethoxy)phenyl)-1H-1,2,4-triazol-3-yl)phenyl)urea]	A (80-100)	–	50 to 100	50 to 100
